Residues, ends and D or L forms follow the SMILES beside them.
Assay: Determination of lipophilicity relative to human insulin (k′rel) by RP-HPLC
Assay type: physicochemical
Settings: pH 7.3
Description: The lipophilicity of peptides and peptide derivatives relative to human insulin, k′rel, was measured on a LiChrosorb RP18 (5 μm, 4×250 mm) HPLC column by isocratic elution at 40° C. using mixtures of A) 0.1 M sodium phosphate buffer, pH 7.3, containing 10% acetonitrile, and B) 50% acetonitrile in water as eluents. The elution was monitored by following the UV absorption of the eluate at 214 nm. Void time, t0, was found by injecting 0.1 mM sodium nitrate. Retention time for human insulin, tinsulin, was adjusted to at least 2t0 by varying the ratio between the A and B solutions. k′rel=(tderivative−t0)/(tinsulin−t0).

Row | lipophilicity relative to human insulin, k′rel | SMILES | lipophilicity relative to human insulin, k′rel (LiChrosorb RP18 HPLC, isocratic, 40° C., k′rel=(tderivative−t0)/(tinsulin−t0))
1 | 2.3 | CCCC[C@H](NC=O)C(=O)N[C@@H](CC(C)C)C(=O)N[C@@H](Cc1ccccc1)C(=O)N[C@@H](CCCC)C(=O)N[C@@H](Cc1ccc(O)cc1)C(=O)N[C@@H](CCCCN)C(=O)O [For-Nle-Leu-Phe-Nle-Tyr-Lys-OH] (HELM PEPTIDE1{[O=C[*:2]].[Nle].L.F.[Nle].Y.K}$$$$V2.0) | –
2 | – | CC(C)C[C@H](NC(=O)[C@H](Cc1ccccc1)NC(=O)CNC(=O)[C@@H](C)NC(=O)[C@@H](N)Cc1ccc(O)cc1)C(=O)N[C@@H](CCCCN)C(=O)O [H-Tyr-D-Ala-Gly-Phe-Leu-Lys-OH] (HELM PEPTIDE1{Y.[dA].G.F.L.K}$$$$V2.0) | 3.0×10^−3

From US7576059B2, “Peptide derivatives” (Novo Nordisk A/S, priority 1995, dated 2009)
